These results are taken from ChEMBL document CHEMBL5634104, “Identification of 1,3,4-oxadiazolyl-containing β-carboline derivatives as novel α-glucosidase inhibitors with antidiabetic activity” (Eur J Med Chem, 2023).

Each structure is given as a SMILES string. The source made the active and inactive calls. The calls are words filed in the database; no cut-off is given here.

In data set [1] the target is T1, Alpha-glucosidase (Saccharomyces cerevisiae S288c, UniProt P53341+P38158+P07265). Nature of the data set: Inhibition of Saccharomyces cerevisiae Alpha-glucosidase using p-NPG as substrate and measured after 10 mins. The format is protein assay.
In data set [2] the target is T1, Alpha-glucosidase. Put plainly: Noncompetitive inhibition of Saccharomyces cerevisiae Alpha-glucosidase assessed as decrease in Vmax with constant Km using p-NPG as substrate by Lineweaver-Burk plot analysis. Format: protein assay.
In data set [3] the test system is Mus musculus. Nature of the data set: Antihyperlipidemic activity against streptozocin-induced C57/6J mouse assessed as decrease in total cholesterol level at 50 mg/kg/day, po administered for 4 weeks by automatic biochemical analyzer. Format: functional, organism-based.
Data set [4] relates to Mus musculus. Put plainly: Anti-diabetic activity against streptozocin-induced C57/6J mouse diabetes model assessed as decrease in blood glucose level at 50 mg/kg/day, po administered for 25 days in presence of sucrose by OGTT assay. The settings on record: time 25.0 day. Format: functional, organism-based.
Data set [5] has as its system L02. Nature of the data set: Cytotoxicity against human L02 cells upto 32 uM. The format is toxicity, cell-based. The conditions noted are these: l02, 32 µM.
Data set [6] concerns Mus musculus. Put plainly: Anti-diabetic activity against streptozocin-induced C57/6J mouse diabetes model assessed as change in fasting blood glucose at 50 mg/kg/day, po and measured after 1 week. The format is functional, organism-based. The conditions noted are these: time 1.0 weeks.
Data set [7] concerns Mus musculus. Nature of the data set: Antihyperlipidemic activity against streptozocin-induced C57/6J mouse assessed as decrease in triglyceride level at 50 mg/kg/day, po administered for 4 weeks by automatic biochemical analyzer. Format: functional, organism-based.
Data set [8] has as its system Mus musculus. Put plainly: Anti-diabetic activity against streptozocin-induced C57/6J mouse diabetes model assessed as decrease in fasting blood glucose at 50 mg/kg/day, po and measured from 2 to 4 weeks. The format is functional, organism-based. The settings on record: time 2-4 weeks.
Data set [9] has as its system Mus musculus. Nature of the data set: Antihyperlipidemic activity against streptozocin-induced C57/6J mouse assessed as decrease in triglyceride level at 100 mg/kg/day, po administered for 4 weeks by automatic biochemical analyzer. Format: functional, organism-based.
Data set [10] concerns Mus musculus. Nature of the data set: Antihyperlipidemic activity against streptozocin-induced C57/6J mouse assessed as decrease in total cholesterol level at 100 mg/kg/day, po administered for 4 weeks by automatic biochemical analyzer. The format is functional, organism-based.
In data set [11] the test system is Mus musculus. Nature of the data set: Anti-diabetic activity against streptozocin-induced C57/6J mouse diabetes model assessed as decrease in fasting blood glucose at 100 mg/kg/day, po and measured from 2 to 4 weeks. The format is functional, organism-based. The conditions noted are these: time 2-4 weeks.
Data set [12] deals with Mus musculus. Nature of the data set: Anti-diabetic activity against streptozocin-induced C57/6J mouse diabetes model assessed as decrease in blood glucose level at 100 mg/kg/day, po administered for 25 days in presence of sucrose by OGTT assay. Format: functional, organism-based. The conditions noted are these: time 25.0 day.
Data set [13] deals with Mus musculus. Nature of the data set: Anti-diabetic activity against streptozocin-induced C57/6J mouse diabetes model assessed as change in fasting blood glucose at 100 mg/kg/day, po and measured after 1 week. The format is functional, organism-based. The settings on record: time 1.0 weeks.

In general, IC50 refers to the concentration at which inhibition is half-maximal. Higher therefore signals a need for much substance. In turn, `FC(F)(F)c1ccccc1CSc1nnc(-c2cc3c([nH]c4ccccc43)c(-c3ccccc3)n2)o1` displayed an IC50 in data set [1] of 10.59 µM.
Take `Brc1cccc(CSc2nnc(-c3cc4c([nH]c5ccccc54)c(-c4ccccc4)n3)o2)c1`: the IC50 in [1] stood at 8.47 µM.
For `Fc1ccccc1CSc1nnc(-c2cc3c([nH]c4ccccc43)c(-c3ccccc3)n2)o1`, the IC50 in [1] turned out to be 14.75 µM.
`Cc1cccc(CSc2nnc(-c3cc4c([nH]c5ccccc54)c(-c4ccccc4)n3)o2)c1` registered a half-inhibitory concentration (IC50) in data set [1] of 10.4 µM.
The same measure, in the same setting: the figure for `Cc1ccc(CSc2nnc(-c3cc4c([nH]c5ccccc54)c(-c4ccccc4)n3)o2)cc1` is 11.86 µM; for `COC(=O)c1ccc(CSc2nnc(-c3cc4c([nH]c5ccccc54)c(-c4ccccc4)n3)o2)cc1` it is 4.6 µM; for `FC(F)(F)c1cccc(CSc2nnc(-c3cc4c([nH]c5ccccc54)c(-c4ccccc4)n3)o2)c1` it is 12.25 µM.
Same read-out and setting: then `FC(F)(F)Oc1cccc(CSc2nnc(-c3cc4c([nH]c5ccccc54)c(-c4ccccc4)n3)o2)c1`, with 10.93 µM.
Compound `N#Cc1ccc(CSc2nnc(-c3cc4c([nH]c5ccccc54)c(-c4ccccc4)n3)o2)cc1` gave an IC50 in [1] of 10.36 µM.
Still for that read-out and setting: then `Fc1cccc(CSc2nnc(-c3cc4c([nH]c5ccccc54)c(-c4ccccc4)n3)o2)c1`, with 15.41 µM; and `c1ccc(-c2cccc(CSc3nnc(-c4cc5c([nH]c6ccccc65)c(-c5ccccc5)n4)o3)c2)cc1`, with 3.39 µM.
The Ki is the dissociation constant of the complex between target and ligand, obtained from inhibition or displacement. For `O=[N+]([O-])c1ccc(CSc2nnc(-c3cc4c([nH]c5ccccc54)c(-c4ccccc4)n3)o2)cc1`, the Ki in data set [2] turned out to be 2.86 µM. The same compound had an IC50 in [1] of 3.1 µM.
In data set [1], `O=[N+]([O-])c1ccccc1CSc1nnc(-c2cc3c([nH]c4ccccc43)c(-c3ccccc3)n2)o1` yielded an IC50 of 9.57 µM.
The same measure, in the same setting: the figure for `CC(C)(C)c1ccc(CSc2nnc(-c3cc4c([nH]c5ccccc54)c(-c4ccccc4)n3)o2)cc1` is 4.95 µM.
Still for that read-out and setting: the figure for `CS(=O)(=O)c1ccc(CSc2nnc(-c3cc4c([nH]c5ccccc54)c(-c4ccccc4)n3)o2)cc1` is 6.15 µM; for `Fc1ccc(CSc2nnc(-c3cc4c([nH]c5ccccc54)c(-c4ccccc4)n3)o2)cc1F` it is 9.12 µM.
Still for that read-out and setting: the figure for `Clc1ccc(CSc2nnc(-c3cc4c([nH]c5ccccc54)c(-c4ccccc4)n3)o2)cc1` is 5.31 µM.
`Clc1cccc(CSc2nnc(-c3cc4c([nH]c5ccccc54)c(-c4ccccc4)n3)o2)c1`: the IC50 in [1] was found to be 12.71 µM. This IC50 lies about 2.4-fold higher than the previous one.
`Fc1ccc(CSc2nnc(-c3cc4c([nH]c5ccccc54)c(-c4ccccc4)n3)o2)cc1` yielded a half-maximal inhibitory concentration (IC50) in data set [1] of 14.73 µM.
On the same count and under the same terms, the figure for `N#Cc1ccccc1CSc1nnc(-c2cc3c([nH]c4ccccc43)c(-c3ccccc3)n2)o1` is 10.57 µM; for `O=[N+]([O-])c1cccc(CSc2nnc(-c3cc4c([nH]c5ccccc54)c(-c4ccccc4)n3)o2)c1` it is 5.76 µM.
`c1ccc(-c2ccc(CSc3nnc(-c4cc5c([nH]c6ccccc65)c(-c5ccccc5)n4)o3)cc2)cc1` registered a 50% inhibitory concentration (IC50) in [1] of 4.32 µM. This IC50 and that of the compound before are within 1.5-fold of each other.
On the same count and under the same terms, the figure for `Cc1ccccc1CSc1nnc(-c2cc3c([nH]c4ccccc43)c(-c3ccccc3)n2)o1` is 3.33 µM.
As to `c1ccc(-c2ccccc2CSc2nnc(-c3cc4c([nH]c5ccccc54)c(-c4ccccc4)n3)o2)cc1`, in data set [2], the Ki was 1.22 µM. For the same compound, the result in data set [3], in [4], in [7] and in data set [8] was Active. The Activity entry in data set [5] is given as “Non-Toxic”. Also, the outcome in data set [6] was inactive. Besides, the IC50 in data set [1] came to 3.07 µM.
In [1], `Brc1ccc(CSc2nnc(-c3cc4c([nH]c5ccccc54)c(-c4ccccc4)n3)o2)cc1` gave a half-maximal inhibitory concentration (IC50) of 5.42 µM.
Compound `COC(=O)c1ccccc1CSc1nnc(-c2cc3c([nH]c4ccccc43)c(-c3ccccc3)n2)o1` came in with a half-inhibitory concentration (IC50) in data set [1] of 5.58 µM. This IC50 and that of the compound before are within 1.5-fold of each other.
Regarding `COC(=O)c1cccc(CSc2nnc(-c3cc4c([nH]c5ccccc54)c(-c4ccccc4)n3)o2)c1`, in data set [1], the IC50 turned out to be 4.93 µM.
Still for that read-out and setting: the figure for `FC(F)(F)c1ccc(CSc2nnc(-c3cc4c([nH]c5ccccc54)c(-c4ccccc4)n3)o2)cc1` is 8.48 µM; for `Clc1ccc(CSc2nnc(-c3cc4c([nH]c5ccccc54)c(-c4ccccc4)n3)o2)cc1Cl` it is 9.66 µM.
Turning to `Brc1ccccc1CSc1nnc(-c2cc3c([nH]c4ccccc43)c(-c3ccccc3)n2)o1`, in data set [1], the IC50 was 6.97 µM.
For the compound `C[C@H]1O[C@H](O[C@H]2[C@H](O)[C@@H](O)[C@@H](O[C@H]3[C@H](O)[C@@H](O)C(O)O[C@@H]3CO)O[C@@H]2CO)[C@H](O)[C@@H](O)[C@@H]1N[C@H]1C=C(CO)[C@@H](O)[C@H](O)[C@H]1O` (some centres undefined), the result in data set [9], in [10], in data set [11] and in data set [12] was Active. In addition, in data set [13], the outcome was inactive.
Turning to `FC(F)(F)Oc1ccccc1CSc1nnc(-c2cc3c([nH]c4ccccc43)c(-c3ccccc3)n2)o1`, the IC50 in data set [1] is 10.64 µM.
Consider `c1ccc(CSc2nnc(-c3cc4c([nH]c5ccccc54)c(-c4ccccc4)n3)o2)cc1`, for which the Ki in data set [2] came to 1.81 µM. The compound also showed an IC50 in [1] of 15.49 µM.
In data set [1], `Clc1ccccc1CSc1nnc(-c2cc3c([nH]c4ccccc43)c(-c3ccccc3)n2)o1` yielded an IC50 of 5.46 µM.
On the same count and under the same terms, then `N#Cc1cccc(CSc2nnc(-c3cc4c([nH]c5ccccc54)c(-c4ccccc4)n3)o2)c1`, with 10.42 µM; and `FC(F)(F)Oc1ccc(CSc2nnc(-c3cc4c([nH]c5ccccc54)c(-c4ccccc4)n3)o2)cc1`, with 6.44 µM.
